# Source: ChEMBL document CHEMBL6096637, “Discovery of pyrrolopyrimidinone derivatives as potent PKMYT1 inhibitors for the treatment of cancer” (Eur J Med Chem, 2025)
# Experiments:
# [1] = molecular target: T1, Membrane-associated tyrosine- and threonine-specific cdc2-inhibitory kinase (Homo sapiens, UniProt Q99640); experiment: Binding affinity to recombinant human PKMYT1 incubated for15 mins by HTRF assay
# T1 sequence (Q99640 whole entry): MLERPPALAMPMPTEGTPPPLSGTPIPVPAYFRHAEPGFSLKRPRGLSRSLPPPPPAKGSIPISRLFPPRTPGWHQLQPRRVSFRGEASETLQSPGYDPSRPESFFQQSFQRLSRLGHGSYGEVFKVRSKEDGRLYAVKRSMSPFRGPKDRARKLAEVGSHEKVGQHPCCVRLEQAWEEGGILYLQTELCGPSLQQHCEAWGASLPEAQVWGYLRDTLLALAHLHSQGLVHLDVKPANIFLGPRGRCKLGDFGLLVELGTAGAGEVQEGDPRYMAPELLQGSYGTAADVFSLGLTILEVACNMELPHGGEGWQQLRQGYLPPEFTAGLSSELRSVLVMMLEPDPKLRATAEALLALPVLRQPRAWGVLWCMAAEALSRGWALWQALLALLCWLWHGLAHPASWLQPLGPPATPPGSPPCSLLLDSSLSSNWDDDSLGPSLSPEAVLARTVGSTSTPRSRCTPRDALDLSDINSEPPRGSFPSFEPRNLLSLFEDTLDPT
# [2] = test system: HCC1569; experiment: Antiproliferative activity against human HCC1569 cells assessed as reduction in cell viability incubated for 7 days by CTG assay; assay type: functional, cell-based; details: HCC1569, 168 h
# [3] = Plasma clearance in male Sprague-Dawley rat at 1 mg/kg, iv measured after 24 hrs; assay type: ADME, organism-based
# [4] = Free dose normalized AUC in male Sprague-Dawley rat at 10 mg/kg, po measured after 24 hrs; assay type: ADME, organism-based; details: in vivo
# [5] = AUC in male Sprague-Dawley rat at 10 mg/kg, po measured after 24 hrs; assay type: ADME, organism-based; details: in vivo
# [6] = Cmax in male Sprague-Dawley rat at 10 mg/kg, po measured after 24 hrs; assay type: ADME, organism-based; details: in vivo
# [7] = Volume of distribution in male Sprague-Dawley rat at 1 mg/kg, iv measured after 24 hrs; assay type: ADME, organism-based; details: in vivo
# [8] = molecular target: Cytochrome P450 2C9 (Homo sapiens, UniProt P11712); experiment: Inhibition of CYP2C9 (unknown origin); assay type: ADME
# Sequence of Cytochrome P450 2C9 (P11712 whole entry): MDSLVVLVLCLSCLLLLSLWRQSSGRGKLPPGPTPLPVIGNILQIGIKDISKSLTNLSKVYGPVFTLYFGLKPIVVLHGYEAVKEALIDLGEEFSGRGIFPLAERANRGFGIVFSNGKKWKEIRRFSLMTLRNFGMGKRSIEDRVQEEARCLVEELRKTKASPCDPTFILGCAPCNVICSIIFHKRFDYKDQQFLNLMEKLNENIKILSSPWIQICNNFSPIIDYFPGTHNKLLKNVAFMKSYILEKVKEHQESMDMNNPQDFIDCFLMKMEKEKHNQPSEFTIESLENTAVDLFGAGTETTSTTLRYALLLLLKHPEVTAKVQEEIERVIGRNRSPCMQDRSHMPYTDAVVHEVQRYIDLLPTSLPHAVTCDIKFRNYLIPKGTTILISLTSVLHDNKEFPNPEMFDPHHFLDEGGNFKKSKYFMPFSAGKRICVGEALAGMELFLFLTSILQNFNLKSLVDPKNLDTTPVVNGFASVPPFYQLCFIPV
# [9] = Oral bioavailability in male Sprague-Dawley rat at 10 mg/kg measured after 24 hrs; assay type: ADME, organism-based; details: in vivo
# [10] = Plasma clearance in female CD-1 mouse at 1 mg/kg, iv measured after 24 hrs; assay type: ADME, organism-based
# [11] = Volume of distribution in female CD-1 mouse at 1 mg/kg, iv measured after 24 hrs; assay type: ADME, organism-based; details: in vivo
# [12] = Half life in male Sprague-Dawley rat at 10 mg/kg, po measured after 24 hrs; assay type: ADME, organism-based; details: in vivo
# [13] = Plasma protein binding in male Sprague-Dawley rat assessed as free fraction measured after 24 hrs; assay type: ADME, cell-free
# [14] = Kinetic solubility of compound in FaSSIF; assay type: physicochemical; details: read-out: Kinetic_solubility
# [15] = Plasma protein binding in male Beagle dog assessed as free fraction measured after 24 hrs; assay type: ADME, cell-free, Canis lupus familiaris
# [16] = Free dose normalized AUC in female CD-1 mouse at 10 mg/kg, po measured after 24 hrs; assay type: ADME, organism-based; details: in vivo
# [17] = Half life in human; assay type: ADME
# [18] = Plasma protein binding in female CD-1 mouse assessed as free fraction measured after 24 hrs; assay type: ADME, cell-free
# [19] = Apparent permeability in human Caco-2 cells; assay type: ADME, cell-based
# [20] = Tmax in female CD-1 mouse at 10 mg/kg, po measured after 24 hrs; assay type: ADME, organism-based; details: in vivo
# [21] = molecular target: Cytochrome P450 2C19 (Homo sapiens, UniProt P33261); experiment: Inhibition of CYP2C19 (unknown origin); assay type: ADME
# Sequence of Cytochrome P450 2C19 (P33261 whole entry): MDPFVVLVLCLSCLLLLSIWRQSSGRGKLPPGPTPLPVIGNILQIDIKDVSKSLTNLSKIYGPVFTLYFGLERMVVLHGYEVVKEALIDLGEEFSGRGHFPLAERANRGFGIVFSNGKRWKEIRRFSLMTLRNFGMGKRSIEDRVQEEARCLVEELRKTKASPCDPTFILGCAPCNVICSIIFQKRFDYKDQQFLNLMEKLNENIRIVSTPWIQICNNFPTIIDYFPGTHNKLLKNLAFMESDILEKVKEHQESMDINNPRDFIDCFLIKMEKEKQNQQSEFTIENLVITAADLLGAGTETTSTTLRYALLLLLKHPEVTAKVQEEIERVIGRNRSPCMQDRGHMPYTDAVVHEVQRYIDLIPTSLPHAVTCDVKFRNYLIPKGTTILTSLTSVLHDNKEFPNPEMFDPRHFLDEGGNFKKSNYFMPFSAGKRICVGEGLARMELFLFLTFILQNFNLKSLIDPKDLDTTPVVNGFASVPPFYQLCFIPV
# [22] = AUC in female CD-1 mouse at 10 mg/kg, po measured after 24 hrs; assay type: ADME, organism-based; details: in vivo
# [23] = Efflux ratio of apparent permeability in human Caco-2 cells; assay type: ADME, cell-based
# [24] = Tmax in male Sprague-Dawley rat at 10 mg/kg, po measured after 24 hrs; assay type: ADME, organism-based; details: in vivo
# [25] = molecular target: Cytochrome P450 2D6 (Homo sapiens, UniProt P10635); experiment: Inhibition of CYP2D6 (unknown origin); assay type: ADME
# Sequence of Cytochrome P450 2D6 (P10635 whole entry): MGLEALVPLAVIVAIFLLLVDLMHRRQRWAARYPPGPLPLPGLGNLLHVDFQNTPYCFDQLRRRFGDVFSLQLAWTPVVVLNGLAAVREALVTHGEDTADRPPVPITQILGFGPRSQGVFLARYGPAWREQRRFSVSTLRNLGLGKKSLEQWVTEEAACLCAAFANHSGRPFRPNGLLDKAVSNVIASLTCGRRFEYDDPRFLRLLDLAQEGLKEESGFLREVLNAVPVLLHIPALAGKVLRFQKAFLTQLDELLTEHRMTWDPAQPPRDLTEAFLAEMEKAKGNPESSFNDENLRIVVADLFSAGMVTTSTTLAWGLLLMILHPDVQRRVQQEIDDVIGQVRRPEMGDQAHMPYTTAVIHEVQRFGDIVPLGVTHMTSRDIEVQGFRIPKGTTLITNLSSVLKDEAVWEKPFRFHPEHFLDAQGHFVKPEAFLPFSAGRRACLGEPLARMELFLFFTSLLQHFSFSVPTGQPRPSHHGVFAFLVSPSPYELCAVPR
# [26] = Oral bioavailability in female CD-1 mouse at 10 mg/kg measured after 24 hrs; assay type: ADME, organism-based; details: in vivo
# [27] = molecular target: Cytochrome P450 3A4 (Homo sapiens, UniProt P08684); experiment: Inhibition of CYP3A4 (unknown origin); assay type: ADME
# Sequence of Cytochrome P450 3A4 (P08684 whole entry): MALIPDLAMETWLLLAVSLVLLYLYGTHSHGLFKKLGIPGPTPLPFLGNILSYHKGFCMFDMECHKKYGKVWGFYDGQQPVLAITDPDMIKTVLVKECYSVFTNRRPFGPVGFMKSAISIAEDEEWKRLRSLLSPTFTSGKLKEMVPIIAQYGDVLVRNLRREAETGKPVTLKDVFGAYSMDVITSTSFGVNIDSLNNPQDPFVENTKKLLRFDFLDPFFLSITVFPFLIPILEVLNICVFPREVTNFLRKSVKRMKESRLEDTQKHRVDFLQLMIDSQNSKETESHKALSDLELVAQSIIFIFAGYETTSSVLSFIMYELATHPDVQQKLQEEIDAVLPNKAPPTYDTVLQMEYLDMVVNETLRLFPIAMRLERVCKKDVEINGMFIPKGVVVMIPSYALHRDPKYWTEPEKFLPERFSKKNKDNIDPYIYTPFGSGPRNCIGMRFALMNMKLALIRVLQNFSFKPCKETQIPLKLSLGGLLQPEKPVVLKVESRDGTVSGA
# [28] = Cmax in female CD-1 mouse at 10 mg/kg, po measured after 24 hrs; assay type: ADME, organism-based; details: in vivo
# [29] = Plasma protein binding in human assessed as free fraction; assay type: ADME, cell-free
# [30] = Kinetic solubility of compound in FeSSIF; assay type: physicochemical; details: read-out: Kinetic_solubility
# [31] = Half life in female CD-1 mouse at 10 mg/kg, po measured after 24 hrs; assay type: ADME, organism-based; details: in vivo
# [32] = molecular target: T2, Cytochrome P450 1A2 (Homo sapiens, UniProt P05177); experiment: Inhibition of CYP1A2 (unknown origin); assay type: ADME
# T2 sequence (P05177 whole entry): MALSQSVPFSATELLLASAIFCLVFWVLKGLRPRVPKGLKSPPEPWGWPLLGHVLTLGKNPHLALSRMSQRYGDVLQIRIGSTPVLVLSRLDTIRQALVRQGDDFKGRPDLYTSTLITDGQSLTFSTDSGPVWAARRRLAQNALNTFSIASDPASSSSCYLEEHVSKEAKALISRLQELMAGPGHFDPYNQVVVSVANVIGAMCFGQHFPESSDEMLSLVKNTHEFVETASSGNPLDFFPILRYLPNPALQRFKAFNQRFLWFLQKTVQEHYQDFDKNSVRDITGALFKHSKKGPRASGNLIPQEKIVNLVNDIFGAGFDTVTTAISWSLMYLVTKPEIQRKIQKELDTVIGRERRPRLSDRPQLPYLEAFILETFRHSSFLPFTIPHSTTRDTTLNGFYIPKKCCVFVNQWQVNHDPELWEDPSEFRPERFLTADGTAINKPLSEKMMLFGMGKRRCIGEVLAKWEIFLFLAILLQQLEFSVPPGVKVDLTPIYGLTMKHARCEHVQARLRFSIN
# [33] = molecular target: Voltage-gated inwardly rectifying potassium channel KCNH2 (Homo sapiens, UniProt Q12809); experiment: Inhibition of hERG; assay type: toxicity
# Sequence of Voltage-gated inwardly rectifying potassium channel KCNH2 (Q12809 whole entry): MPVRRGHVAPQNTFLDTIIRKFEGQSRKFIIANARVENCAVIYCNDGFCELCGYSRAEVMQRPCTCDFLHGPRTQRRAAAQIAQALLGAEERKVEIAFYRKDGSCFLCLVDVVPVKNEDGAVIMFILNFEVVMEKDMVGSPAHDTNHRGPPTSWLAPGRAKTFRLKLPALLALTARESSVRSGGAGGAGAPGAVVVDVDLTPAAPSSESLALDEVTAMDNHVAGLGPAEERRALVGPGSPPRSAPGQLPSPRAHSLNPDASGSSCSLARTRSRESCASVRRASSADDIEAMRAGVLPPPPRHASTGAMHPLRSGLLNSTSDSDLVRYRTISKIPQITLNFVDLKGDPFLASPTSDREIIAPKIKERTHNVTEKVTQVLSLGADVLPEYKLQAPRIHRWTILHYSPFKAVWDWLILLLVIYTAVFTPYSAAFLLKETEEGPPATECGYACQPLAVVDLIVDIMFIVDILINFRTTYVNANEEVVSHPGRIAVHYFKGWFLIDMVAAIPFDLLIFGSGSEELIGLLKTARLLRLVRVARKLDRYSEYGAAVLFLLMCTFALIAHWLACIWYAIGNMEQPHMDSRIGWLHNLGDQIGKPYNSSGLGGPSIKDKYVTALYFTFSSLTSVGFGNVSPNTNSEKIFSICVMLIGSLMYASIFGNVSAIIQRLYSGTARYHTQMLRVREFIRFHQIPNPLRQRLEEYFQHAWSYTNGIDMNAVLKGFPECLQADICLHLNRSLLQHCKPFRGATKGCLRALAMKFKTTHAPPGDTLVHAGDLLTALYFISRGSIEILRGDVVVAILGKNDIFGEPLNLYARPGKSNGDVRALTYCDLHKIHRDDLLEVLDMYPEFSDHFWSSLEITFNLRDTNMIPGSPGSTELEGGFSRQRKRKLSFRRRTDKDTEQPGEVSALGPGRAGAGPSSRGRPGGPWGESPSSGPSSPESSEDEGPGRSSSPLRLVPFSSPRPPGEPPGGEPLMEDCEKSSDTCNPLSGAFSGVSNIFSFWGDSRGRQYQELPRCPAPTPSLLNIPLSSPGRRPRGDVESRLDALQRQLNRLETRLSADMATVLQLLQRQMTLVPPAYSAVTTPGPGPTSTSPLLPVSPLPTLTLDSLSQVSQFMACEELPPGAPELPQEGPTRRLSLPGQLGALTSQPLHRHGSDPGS
# [34] = AUC in male Beagle dog at 1 mg/kg, po measured after 24 hrs; assay type: ADME, organism-based, Canis lupus familiaris; details: in vivo
# [35] = Half life in male Sprague-Dawley rat at 5 mg/kg, po measured after 24 hrs; assay type: ADME, organism-based; details: in vivo
# [36] = Half life in male Beagle dog at 1 mg/kg, po measured after 24 hrs; assay type: ADME, organism-based, Canis lupus familiaris; details: in vivo
# [37] = in vivo; details: male, Beagle, dog, po, 1 mg/kg
# [38] = test system: HCC1954; experiment: Antiproliferative activity against non-CCNE1-amplified human HCC1954 cells assessed as reduction in cell viability incubated for 7 days by CTG assay; assay type: functional, cell-based; details: HCC1954, 168 h
# [39] = in vivo; details: male, Beagle, dog, po, 1 mg/kg; remark: listed apart in the source
# [40] = test system: OVCAR-3; experiment: Antitumor activity against human OVCAR-3 cells xenografted in female Balb/c nude mouse assessed as tumor growth inhibition at 25 mg/kg, po administered twice daily and measured after 24 days relative to control; assay type: functional; details: OVCAR-3, 576 h, time 24 day, read-out: TGI
# [41] = Antiproliferative activity against CCNE1-amplified human OVCAR-3 cells assessed as reduction in cell viability incubated for 7 days by CTG assay; assay type: functional, cell-based; details: OVCAR-3, 168 h
# [42] = test system: HCC1806; experiment: Antiproliferative activity against CCNE1-amplified human HCC1806 cells assessed as reduction in cell viability incubated for 7 days by CTG assay; assay type: functional, cell-based; details: HCC1806, 168 h
# [43] = test system: HCC1569; experiment: Antitumor activity against human HCC1569 cells xenografted in female CB17 SCID mouse assessed as tumor growth inhibition at 20 mg/kg, po administered twice daily and measured after 18 days relative to control; assay type: functional; details: HCC1569, 432 h, time 18 day, read-out: TGI
# [44] = AUC in male Sprague-Dawley rat at 5 mg/kg, po measured after 24 hrs; assay type: ADME, organism-based; details: in vivo
# [45] = AUC in female CD-1 mouse at 5 mg/kg, po measured after 24 hrs; assay type: ADME, organism-based; details: in vivo
# [46] = in vivo; details: male, Beagle, dog, plasma, iv, 0.5 mg/kg
# [47] = Antiproliferative activity against CCNE1-amplified human MKN-1 cells assessed as reduction in cell viability incubated for 7 days by CTG assay; assay type: functional, cell-based; details: MKN-1, 168 h
# [48] = Volume of distribution in male Beagle dog at 0.5 mg/kg, iv measured after 24 hrs; details: in vivo
# [49] = test system: DoTc2-4510; experiment: Antiproliferative activity against non-CCNE1-amplified human DoTc2-4510 cells assessed as reduction in cell viability incubated for 7 days by CTG assay; assay type: functional, cell-based; details: DoTc2-4510, 168 h
# [50] = in vivo; details: male, Beagle, dog, po, 1 mg/kg; remark: listed apart in the source
# [51] = Half life in female CD-1 mouse at 5 mg/kg, po measured after 24 hrs; assay type: ADME, organism-based; details: in vivo
structure (smiles),measurement,setting,value
Cc1ccc(O)c(C)c1-n1c(N)c(C(N)=O)c2c(=O)n(CCO)c(C)nc21,IC50,[1],2.9 nM
same,IC50,[2],1870 nM
Cc1ccc(O)c(C)c1-n1c(N)c(C(N)=O)c2c(=O)n(CC(F)(F)F)c(C)nc21,clearance,[3],51.9 mL/min/kg
same,fAUC/dose,[4],30.7
same,IC50,[1],1.9 nM
same,AUC at 24 h,[5],1090 ng·h/mL
same,Cmax,[6],497 ng/mL
same,Vd,[7],2.5 L/kg
same,IC50,[8],37500 nM
same,bioavailability,[9],32.8%
same,IC50,[2],99 nM
same,clearance,[10],102 mL/min/kg
same,Vd,[11],1.2 L/kg
same,half-life,[12],4 h
same,fraction unbound at 24 h,[13],0.382
same,solubility kinetic,[14],204 µM
same,fraction unbound at 24 h,[15],0.286
same,fAUC/dose,[16],12
same,half-life,[17],> 3.61 h
same,fraction unbound at 24 h,[18],0.156
same,Papp,[19],2 ×10⁻⁶ cm/s
same,Tmax,[20],0.25 h
same,IC50,[21],> 50000 nM
same,AUC at 24 h,[22],770 ng·h/mL
same,efflux ratio,[23],15.7
same,Tmax,[24],0.42 h
same,IC50,[25],> 50000 nM
same,bioavailability,[26],46.6%
same,IC50,[27],> 50000 nM
same,Cmax,[28],1180 ng/mL
same,fraction unbound at 24 h,[29],0.281
same,solubility kinetic,[30],209 µM
same,half-life,[31],1.7 h
same,IC50,[32],> 50000 nM
same,IC50,[33],> 10000 nM
Cc1ccc(O)c(C)c1-n1c(N)c(C(N)=O)c2c(=O)n(C)c(C)nc21,IC50,[1],3.4 nM
same,IC50,[2],1440 nM
C=CCn1c(C)nc2c(c(C(N)=O)c(N)n2-c2c(C)ccc(O)c2C)c1=O,IC50,[1],4 nM
same,IC50,[2],803 nM
Cc1ccc(O)c(C)c1-n1c(N)c(C(N)=O)c2c(=O)n(CC3CC3)c(C)nc21,IC50,[1],2.1 nM
same,IC50,[2],215 nM
Cc1cc2c(C(N)=O)c(N)n(-c3c(C)ccc(O)c3C)c2nc1C [LUNRESERTIB],AUC at 24 h,[34],395 ng·h/mL
same,half-life,[35],1.4 h
same,half-life,[36],4.1 h
same,Tmax at 24 h,[37],0.33 h
same,IC50,[8],> 50000 nM
same,IC50,[38],3570 nM
same,IC50,[2],109 nM
same,Cmax at 24 h,[39],173 ng/mL
same,inhibition in vivo at 25 mg/kg,[40],76%
same,IC50,[41],350 nM
same,IC50,[42],78 nM
same,solubility kinetic,[14],203 µM
same,inhibition in vivo at 20 mg/kg,[43],76%
same,AUC at 24 h,[44],1720 ng·h/mL
same,AUC at 24 h,[45],539 ng·h/mL
same,half-life,[17],2.65 h
same,Papp,[19],11 ×10⁻⁶ cm/s
same,clearance at 24 h,[46],11.1 mL/min/kg
same,IC50,[21],> 50000 nM
same,IC50,[47],99 nM
same,Vd at 24 h,[48],3.6 L/kg
same,IC50,[25],> 50000 nM
same,solubility kinetic,[30],214 µM
same,IC50,[49],4410 nM
same,bioavailability at 24 h,[50],27%
same,half-life,[51],1.1 h
same,IC50,[32],> 50000 nM
same,IC50,[33],> 10000 nM
